Measurements: article PMC11277489, “Novel Piperazine Derivatives of Vindoline as Anticancer Agents” (International Journal of Molecular Sciences, 2024)

Columns and labels:
[1] = system: IGROV1; assay: NCI60 one-dose screen (10 μM), Ovarian Cancer; type: cell-based; conditions: Homo sapiens, IGROV-1; 10 μM; IGROV1, Ovarian Cancer; read-out: Growth percent rate
[2] = system: TK-10; assay: NCI60 one-dose screen (10 μM), Renal Cancer; type: cell-based; conditions: Homo sapiens; 10 μM; TK-10, Renal Cancer; read-out: Growth percent rate
[3] = system: CAKI-1; assay: NCI60 one-dose screen (10 μM), Renal Cancer; type: cell-based; conditions: Homo sapiens; 10 μM; CAKI-1, Renal Cancer; read-out: Growth percent rate
[4] = system: SK-MEL-28; assay: NCI60 one-dose screen (10 μM), Melanoma; type: cell-based; conditions: Homo sapiens; 10 μM; SK-MEL-28, Melanoma; read-out: Growth percent rate
[5] = system: MDA-MB-435; assay: NCI60 one-dose screen (10 μM), Melanoma; type: cell-based; conditions: Homo sapiens; 10 μM; MDA-MB-435, Melanoma; read-out: Growth percent rate
[6] = system: OVCAR-8; assay: NCI60 one-dose screen (10 μM), Ovarian Cancer; type: cell-based; conditions: Homo sapiens; 10 μM; OVCAR-8, Ovarian Cancer; read-out: Growth percent rate
[7] = system: SK-MEL-2; assay: NCI60 one-dose screen (10 μM), Melanoma; type: cell-based; conditions: Homo sapiens; 10 μM; SK-MEL-2, Melanoma; read-out: Growth percent rate
[8] = system: SN12C; assay: NCI60 one-dose screen (10 μM), Renal Cancer; type: cell-based; conditions: Homo sapiens, 10 μM, Renal Cancer, read-out: Growth percent rate
[9] = system: NCI-H460; assay: NCI60 one-dose screen (10 μM), Non-small Cell Lung Cancer; type: cell-based; conditions: Homo sapiens; 10 μM; NCI-H460, Non-small Cell Lung Cancer; read-out: Growth percent rate
[10] = system: OVCAR-3; assay: NCI60 one-dose screen (10 μM), Ovarian Cancer; type: cell-based; conditions: Homo sapiens; 10 μM; OVCAR-3, Ovarian Cancer; read-out: Growth percent rate
[11] = system: A549/ATCC; assay: NCI60 one-dose screen (10 μM), Non-small Cell Lung Cancer; type: cell-based; conditions: Homo sapiens; 10 μM; A549/ATCC, Non-small Cell Lung Cancer; read-out: Growth percent rate
[12] = system: SNB-75; assay: NCI60 one-dose screen (10 μM), CNS Cancer; type: cell-based, human; conditions: Homo sapiens; 10 μM; SNB-75, CNS Cancer; read-out: Growth percent rate
[13] = system: SF-295; assay: NCI60 one-dose screen (10 μM), CNS Cancer; type: cell-based; conditions: Homo sapiens; 10 μM; SF-295, CNS Cancer; read-out: Growth percent rate
[14] = system: SW-620; assay: NCI60 one-dose screen (10 μM), Colon Cancer; type: cell-based; conditions: Homo sapiens; 10 μM; SW-620, Colon Cancer; read-out: Growth percent rate
[15] = system: HL-60(TB); assay: NCI60 one-dose screen (10 μM), Leukemia; type: cell-based; conditions: Homo sapiens; 10 μM; HL-60(TB), Leukemia; read-out: Growth percent rate
[16] = system: 786–0; assay: NCI60 one-dose screen (10 μM), Renal Cancer; type: cell-based; conditions: Homo sapiens; 10 μM; 786-0, Renal Cancer; read-out: Growth percent rate
[17] = system: A498; assay: NCI60 one-dose screen (10 μM), Renal Cancer; type: cell-based; conditions: Homo sapiens; 10 μM; A498, Renal Cancer; read-out: Growth percent rate
[18] = system: HCC-2998; assay: NCI60 one-dose screen (10 μM), Colon Cancer; type: cell-based; conditions: Homo sapiens; 10 μM; HCC-2998, Colon Cancer; read-out: Growth percent rate
[19] = system: NCI-H322M; assay: NCI60 one-dose screen (10 μM), Non-small Cell Lung Cancer; type: cell-based; conditions: Homo sapiens, 10 μM, Non-small Cell Lung Cancer, read-out: Growth percent rate
[20] = system: RPMI-8226; assay: NCI60 one-dose screen (10 μM), Leukemia; type: cell-based; conditions: Homo sapiens; 10 μM; RPMI-8226, Leukemia; read-out: Growth percent rate
[21] = system: K-562; assay: NCI60 one-dose screen (10 μM), Leukemia; type: cell-based; conditions: Homo sapiens, K562; 10 μM; K-562, Leukemia; read-out: Growth percent rate
[22] = system: SK-MEL-5; assay: NCI60 one-dose screen (10 μM), Melanoma; type: cell-based, human; conditions: Homo sapiens; 10 μM; SK-MEL-5, Melanoma; read-out: Growth percent rate
[23] = system: HCT-15; assay: NCI60 one-dose screen (10 μM), Colon Cancer; type: cell-based; conditions: Homo sapiens; 10 μM; HCT-15, Colon Cancer; read-out: Growth percent rate
[24] = system: COLO 205; assay: NCI60 one-dose screen (10 μM), Colon Cancer; type: cell-based, human; conditions: Homo sapiens; 10 μM; COLO 205, Colon Cancer; read-out: Growth percent rate
[25] = system: HOP-62; assay: NCI60 one-dose screen (10 μM), Non-small Cell Lung Cancer; type: cell-based; conditions: Homo sapiens; 10 μM; HOP-62, Non-small Cell Lung Cancer; read-out: Growth percent rate
[26] = system: KM12; assay: NCI60 one-dose screen (10 μM), Colon Cancer; type: cell-based, human; conditions: Homo sapiens; 10 μM; KM12, Colon Cancer; read-out: Growth percent rate
[27] = system: HCT-116; assay: NCI60 one-dose screen (10 μM), Colon Cancer; type: cell-based; conditions: Homo sapiens; 10 μM; HCT-116, Colon Cancer; read-out: Growth percent rate
[28] = system: NCI-H522; assay: NCI60 one-dose screen (10 μM), Non-small Cell Lung Cancer; type: cell-based; conditions: Homo sapiens; 10 μM; NCI-H522, Non-small Cell Lung Cancer; read-out: Growth percent rate
[29] = system: MOLT-4; assay: NCI60 one-dose screen (10 μM), Leukemia; type: cell-based, human; conditions: Homo sapiens; 10 μM; MOLT-4, Leukemia; read-out: Growth percent rate
[30] = system: EKVX; assay: NCI60 one-dose screen (10 μM), Non-small Cell Lung Cancer; type: cell-based; conditions: Homo sapiens, 10 μM, Non-small Cell Lung Cancer, read-out: Growth percent rate
[31] = system: UACC-257; assay: NCI60 one-dose screen (10 μM), Melanoma; type: cell-based; conditions: Homo sapiens; 10 μM; UACC-257, Melanoma; read-out: Growth percent rate
[32] = system: CCRF-CEM; assay: NCI60 one-dose screen (10 μM), Leukemia; type: cell-based; conditions: Homo sapiens, 10 μM, Leukemia, read-out: Growth percent rate
[33] = system: SNB-19; assay: NCI60 one-dose screen (10 μM), CNS Cancer; type: cell-based; conditions: Homo sapiens; 10 μM; SNB-19, CNS Cancer; read-out: Growth percent rate
[34] = system: HT29; assay: NCI60 one-dose screen (10 μM), Colon Cancer; type: cell-based; conditions: Homo sapiens, HT-29; 10 μM; HT29, Colon Cancer; read-out: Growth percent rate
[35] = system: MCF7; assay: NCI60 one-dose screen (10 μM), Breast Cancer; type: cell-based; conditions: Homo sapiens; 10 μM; MCF7, Breast Cancer; read-out: Growth percent rate
[36] = system: U251; assay: NCI60 one-dose screen (10 μM), CNS Cancer; type: cell-based; conditions: Homo sapiens, U-251; 10 μM; U251, CNS Cancer; read-out: Growth percent rate
[37] = system: M14; assay: NCI60 one-dose screen (10 μM), Melanoma; type: cell-based; conditions: Homo sapiens; 10 μM; M14, Melanoma; read-out: Growth percent rate
[38] = system: HS 578T; assay: NCI60 one-dose screen (10 μM), Breast Cancer; type: cell-based; conditions: Homo sapiens; 10 μM; HS 578T, Breast Cancer; read-out: Growth percent rate
[39] = system: ACHN; assay: NCI60 one-dose screen (10 μM), Renal Cancer; type: cell-based; conditions: Homo sapiens, 10 μM, Renal Cancer, read-out: Growth percent rate
[40] = system: NCI-H23; assay: NCI60 one-dose screen (10 μM), Non-small Cell Lung Cancer; type: cell-based; conditions: Homo sapiens; 10 μM; NCI-H23, Non-small Cell Lung Cancer; read-out: Growth percent rate
[41] = system: MALME-3M; assay: NCI60 one-dose screen (10 μM), Melanoma; type: cell-based; conditions: Homo sapiens; 10 μM; MALME-3M, Melanoma; read-out: Growth percent rate
[42] = system: SF-539; assay: NCI60 one-dose screen (10 μM), CNS Cancer; type: cell-based, human; conditions: Homo sapiens; 10 μM; SF-539, CNS Cancer; read-out: Growth percent rate

## CCC12C=CCN3CCC4(c5ccc(OC)cc5N(C)C4C(O)(C(=O)OC)C1OC(=O)CCCBr)C32 (stereo not drawn) [Compound 14, 17-(O-4-bromobutanoyl)vindoline]
[1]
  activity at 10 µM: 100%
[2]
  activity at 10 µM: 100%
[3]
  activity at 10 µM: 80.9%
[4]
  activity at 10 µM: 105%
[5]
  activity at 10 µM: 104%
[6]
  activity at 10 µM: 93.4%
[7]
  activity at 10 µM: 103%
[8]
  activity at 10 µM: 97.4%
[9]
  activity at 10 µM: 97.8%
[10]
  activity at 10 µM: 99.7%
[11]
  activity at 10 µM: 89.4%
[12]
  activity at 10 µM: 92.6%
[13]
  activity at 10 µM: 86.9%
[14]
  activity at 10 µM: 100%
[15]
  activity at 10 µM: 90.5%
[16]
  activity at 10 µM: 94.3%
[17]
  activity at 10 µM: 90.1%
[18]
  activity at 10 µM: 93.8%
[19]
  activity at 10 µM: 101%
[20]
  activity at 10 µM: 91.4%
[21]
  activity at 10 µM: 79.7%
[22]
  activity at 10 µM: 84.3%
[23]
  activity at 10 µM: 96.8%
[24]
  activity at 10 µM: 101%
[25]
  activity at 10 µM: 101%
[26]
  activity at 10 µM: 100%
[27]
  activity at 10 µM: 87%
[28]
  activity at 10 µM: 79%
[29]
  activity at 10 µM: 76.1%
[30]
  activity at 10 µM: 91.2%
[31]
  activity at 10 µM: 88.4%
[32]
  activity at 10 µM: 99.8%
[33]
  activity at 10 µM: 89.3%
[34]
  activity at 10 µM: 94.1%
[35]
  activity at 10 µM: 80.3%
[36]
  activity at 10 µM: 87.2%
[37]
  activity at 10 µM: 95.7%
[38]
  activity at 10 µM: 94.5%
[39]
  activity at 10 µM: 99.8%
[40]
  activity at 10 µM: 93.1%
[41]
  activity at 10 µM: 101%
[42]
  activity at 10 µM: 91.9%
